Assay results taken from PMC10461232, “Structure-Based Design of Transport-Specific Multitargeted One-Carbon Metabolism Inhibitors in Cytosol and Mitochondria” (Journal of Medicinal Chemistry, 2023).
Read-outs that look alike come from different tables or passages of the source.

Columns and labels:
[1] = tested on: R2 (MTXRIIOuaR2-4) CHO cells; assay: Growth inhibition, transporter-null R2 CHO cells; type: cell-based, Chinese hamster; conditions: Cricetulus griseus, 96 h, read-out: IC50 R2
[2] = tested on: PC43-10 (RFC) CHO cells; assay: Growth inhibition, PC43-10 CHO cells expressing human RFC; type: cell-based, Chinese hamster; conditions: Cricetulus griseus, 96 h, read-out: IC50 PC43-10 (RFC)
[3] = tested on: R2/PCFT4 (PCFT) CHO cells; assay: Growth inhibition, R2/PCFT4 CHO cells expressing human PCFT; type: cell-based, Chinese hamster; conditions: Cricetulus griseus, 96 h, read-out: IC50 R2/PCFT4 (PCFT)
[4] = tested on: RT16 (FRα) CHO cells; assay: Growth inhibition, RT16 CHO cells expressing human FRα; type: cell-based, Chinese hamster; conditions: 96 h, mean (SE)
[5] = tested on: D4 (FRβ) CHO cells; assay: Growth inhibition, D4 CHO cells expressing human FRβ; type: cell-based, Chinese hamster; conditions: for IC50: Cricetulus griseus, CHO, 96 h, mean (SE); for difference between D4 (FRβ) and RT16 (FRα) IC50: RT16 versus D4 CHO cells
[6] = tested on: KB (RFC/PCFT/FRα) cells; assay: Growth inhibition, KB nasopharyngeal carcinoma cells; type: cell-based, human; conditions: Homo sapiens, KB, folate-free RPMI 1640, 2 nM leucovorin, mean (SE)
Procedure: The CHO cells were cultured in α-minimal essential medium (MEM) supplemented with 10% bovine calf serum (Fisher Scientific), penicillin (1000 U/mL)/streptomycin (1000 μg/mL), and 2 mM L-glutamine at 37 °C with 5% CO2. All of the R2 transfected cells (PC43-10, RT16, R2/PCFT4) were cultured in complete α-MEM media plus 1 mg/mL G418. Prior to the cytotoxicity assays (see below), RT16 and D4 cells were cultured for 3 days in complete folate-free RPMI 1640 (without added folate), and R2/PCFT4 and R2 cells were cultured in complete folate-free RPMI 1640 supplemented with dialyzed fetal bovine serum (Fisher Scientific) and 25 nM leucovorin plus 1 mg/mL G418. KB cells were routinely cultured in folate-free RPMI 1640 medium, supplemented with 10% fetal bovine serum (Fisher Scientific), penicillin-streptomycin solution, and 2 mM L-glutamine at 37 °C with 5% CO2.
For growth inhibition studies, cells (CHO, KB) were plated in 96-well dishes (∼2500–5000 cells/well, total volume of 200 μL medium) over a range of antifolate concentrations.[69],[77] The medium was folate-free RPMI 1640 with 10% dialyzed serum and antibiotics supplemented with 25 nM leucovorin for experiments with R2, PC43-10, and R2/PCFT4 cells. For experiments with RT16, D4, and KB cells, cells were cultured in folate-free RPMI medium with 10% dialyzed fetal bovine serum and antibiotics; the medium was supplemented with 2 nM leucovorin. […] Incubations were routinely for up to 96 h. Viable cells (reflecting cell viability) were assayed with Cell Titer Blue reagent (Promega, Madison, WI), with fluorescence measured (590 nm emission, 560 nm excitation) with a fluorescence plate reader.

[7] = tested on: HPAC (RFC/PCFT) cells; assay: Proliferation inhibition, HPAC pancreatic adenocarcinoma cells; type: cell-based, human; conditions: for IC50: HPAC cells, folate- and glycine-free RPMI, 25 nM leucovorin, mean (SE)
Text: (§1) The RFC-, PCFT-, and FR-null MTXRIIOua^R2–4 (R2), and RFC- (PC43-10), PCFT- (R2/PCFT4), FRα- (RT16), and FRβ- (D4) expressing CHO sublines were previously described.[62]−[64],[76] HPAC pancreatic cancer cells were generously provided by Dr. Yubin Ge (Karmanos Cancer Institute, Detroit, MI). Human pancreatic normal epithelial (HPNE) cells[67] were a gift from M. Oulette (University of Nebraska Medical Center, Omaha, NE). KB human nasopharyngeal carcinoma cells were purchased from the American Type Culture Collection (Manassas, VA). All human cell lines were validated by STR analysis by Genetica DNA Laboratories (Burlington, NC). Cell lines were tested for Mycoplasma by PCR using a Mycloplasma testing kit (Venor GeM Mycoplasma Detection Kit, Sigma). Frozen stocks were generated from authenticated Mycoplasma-free cultures.

[8] = tested on: HPNE (RFC) cells; assay: Proliferation inhibition, HPNE normal pancreatic epithelial cells; type: cell-based; conditions: Homo sapiens, folate- and glycine-free RPMI, 25 nM leucovorin
Text: as §1

[9] = Cricetulus griseus, read-out: IC50 RT16 (FRα), CHO cells expressing human FRα, 96 h, 2 nM leucovorin
[10] = read-out: IC50 D4 (FRβ), CHO cells expressing human FRβ, 96 h, 2 nM leucovorin
[11] = transporter-null CHO cells, 25 nM leucovorin, mean (SE)
[12] = CHO cells expressing human RFC, 25 nM leucovorin, mean (SE)
[13] = CHO cells expressing human PCFT, 25 nM leucovorin, mean (SE)
[14] = Cricetulus griseus, CHO cells expressing human FRα, 2 nM leucovorin, read-out: IC50 RT16 (FRα)
[15] = CHO cells expressing human FRβ, 2 nM leucovorin, read-out: IC50 D4 (FRβ)

Row | Structure (SMILES) | IC50 ([1]; CHO) [nM] | IC50 [2] [nM] | IC50 [3] [nM] | IC50 [4, 9] [nM] | IC50 [5, 10] [nM] | IC50 [6] [nM] | IC50 [7] [nM] | IC50 ([7]; Homo sapiens, HPAC) [nM] | IC50 [8] [nM] | IC50 [1, 11] [nM] | IC50 [2, 12] [nM] | IC50 [3, 13] [nM] | IC50 [4, 14] [nM] | IC50 [5, 15] [nM] | difference between D4 (FRβ) and RT16 (FRα) IC50 [5] | IC50 HPAC (RFC/PCFT) [7] [nM] | IC50 ([4]; CHO cells expressing human FRα, 2 nM leucovorin, read-out: IC50 RT16 (FRα)) [nM]
1 | Nc1nc2ccn(CCCCCc3ccc(C(=O)N[C@@H](CCC(=O)O)C(=O)O)s3)c2c(=O)[nH]1 [Compound 3] | > 1000 | > 1000 | > 1000 | 14.6 | 7.89 | 7.47 | 746 | 746 | > 5000 |  |  |  |  |  |  |  | 
2 | Nc1nc2ccn(CCCc3ccc(C(=O)N[C@@H](CCC(=O)O)C(=O)O)s3)c2c(=O)[nH]1 [Compound 4] |  |  |  |  |  | 23.7 |  | 2990 | > 5000 | > 1000 | > 1000 | 497 | 33 | 1.94 | 20- to 40 fold |  | 
3 | Nc1nc2ccn(CCCOc3ccc(C(=O)N[C@@H](CCC(=O)O)C(=O)O)cc3)c2c(=O)[nH]1 [Compound 5, (4-(3-(2-Amino-4-oxo-3,4-dihydro-5H-pyrrolo[3,2-d]pyrimidin-5-yl)propoxy)benzoyl)-L-glutamic Acid] |  |  |  |  |  | 8.23 | 1670 | 1200 to 1600 | > 5000 | > 1000 | > 1000 | > 1000 | 18.7 | 0.45 | 20- to 40 fold |  | 
4 | Nc1nc2ccn(CCOc3ccc(C(=O)N[C@@H](CCC(=O)O)C(=O)O)cc3)c2c(=O)[nH]1 [Compound 6, (4-(3-(2-Amino-4-oxo-3,4-dihydro-5H-pyrrolo[3,2-d]pyrimidin-5-yl)ethoxy)benzoyl)-L-glutamic Acid] |  |  |  |  |  | 11.2 |  | 4620 | > 5000 | > 1000 | > 1000 | 431 | 67.7 | 1.62 | 20- to 40 fold |  | 
5 | Nc1nc2ccn(CCCNc3ccc(C(=O)N[C@@H](CCC(=O)O)C(=O)O)cc3)c2c(=O)[nH]1 [Compound 8, (4-((3-(2-Amino-4-oxo-3,4-dihydro-5H-pyrrolo[3,2-d]pyrimidin-5-yl)propyl)amino)benzoyl)-L-glutamic Acid] |  |  |  |  |  | 6.17 |  | > 5000 | > 5000 | > 1000 | > 1000 | > 1000 | 6.88 |  |  |  | 
6 | Nc1nc2ccn(CCCCCc3ccc(C(=O)N[C@@H](CCC(=O)O)C(=O)O)cc3)c2c(=O)[nH]1 [Compound 9] |  |  |  |  |  | 6.3 |  | 1620 | > 5000 | > 1000 | > 1000 | > 1000 | 13.5 | 6.33 |  |  | 
7 | Nc1nc2ccn(CCCCCc3ccc(C(=O)N[C@@H](CCC(=O)O)C(=O)O)c(F)c3)c2c(=O)[nH]1 [Compound 11, (4-(5-(2-Amino-4-oxo-3,4-dihydro-5H-pyrrolo[3,2-d]pyrimidin-5-yl)pentyl)-2-fluorobenzoyl)-L-glutamic Acid] | > 1000 | > 1000 | > 1000 | 26.8 | 6.95 | 6.25 |  | 1230 | > 5000 |  |  |  |  |  |  |  | 
8 | Nc1nc2ccn(CCCCc3cc(F)c(C(=O)N[C@@H](CCC(=O)O)C(=O)O)c(F)c3)c2c(=O)[nH]1 [Compound 12, (4-(4-(2-Amino-4-oxo-3,4-dihydro-5H-pyrrolo[3,2-d]pyrimidin-5-yl)butyl)-2,6-difluorobenzoyl)-L-glutamic Acid] |  |  |  |  |  | 9.26 |  | > 5000 | > 5000 | > 1000 | > 1000 | > 1000 | 2.55 | 7.5 |  |  | 
9 | Nc1nc2ccn(CCCc3ccc(C(=O)N[C@@H](CCC(=O)O)C(=O)O)c(F)c3)c2c(=O)[nH]1 [Compound 13, (4-(3-(2-Amino-4-oxo-3,4-dihydro-5H-pyrrolo[3,2-d]pyrimidin-5-yl)propyl)-2-fluorobenzoyl)-L-glutamic Acid] |  |  |  |  |  | 8.34 |  | 166 | > 5000 | > 1000 | 233 | 98 | 16.3 | 0.63 | 20- to 40 fold | 2600 to 4600 | 
10 | Nc1nc2ccn(CCCCc3ccc(C(=O)N[C@@H](CCC(=O)O)C(=O)O)cc3)c2c(=O)[nH]1 [Compound 15] |  |  |  |  |  | 6.81 |  | 2590 | > 5000 | > 1000 | > 1000 | > 1000 | < 3 |  |  |  | 1.64
